Results taken from patent US20160083374A1, “AMORPHOUS FORM OF CANAGLIFLOZIN AND PROCESS FOR PREPARING THEREOF” (CADILA HEALTHCARE LIMITED, priority 2013, published 2016).

How the values were obtained:
[1] = cited from earlier work
[2] = Solid-form stability under normal stability conditions; format: physicochemical; conditions: amorphous canagliflozin obtained by removal of solvent per the invention
Source text: The obtained amorphous canagliflozin is stable under normal stability conditions and substantially free from residual solvent. Therefore, there is no physical change observed from amorphous form to crystalline form during the stability.
In another general aspect, the stable amorphous form of canagliflozin, is stored under nitrogen atmosphere and packed in a double polythene bag tied with a thread, keeping primary packing containing amorphous canagliflozin or salts thereof inside a black color polyethylene bag containing oxygen busters and sealing it, placing above the double polyethylene bag inside a triple laminated bag optionally containing oxygen busters and sealing it, and placing the sealed triple laminated bag inside a closed high density polyethylene (HDPE) container and storing in controlled environment chamber at about 25° C. and/or 40° C.

Cc1ccc([C@@H]2O[C@H](CO)[C@@H](O)[C@H](O)[C@H]2O)cc1Cc1ccc(-c2ccc(F)cc2)s1 [amorphous canagliflozin]
physical change between sorption/desorption cycles ([1]; amorphous canagliflozin of US '487 A1, humidity increased from 70% to 90% RH): conversion or partial conversion from the amorphous state to a crystalline state
hygroscopicity by DVS ([1]; amorphous canagliflozin prepared by the process of US '487 A1 (toluene solution into n-heptane)): hygroscopic
stability of amorphous form (change from amorphous to crystalline form) [2]: stable
